The values that follow come from US10501413B2, “Inhibitors of the Notch transcriptional activation complex and methods for use of the same” (UNIVERSITY OF MIAMI, priority 2015, dated 2019).

In one data set the target is T1, NICD1 (Homo sapiens, UniProt P46531).
T1 construct: the intracellular domain of Notch (“NICD”)
Description: Surface plasmon resonance binding to immobilized NICD. The note with it: SPR, equilibrium response fitted to 1:1 binding model. The protocol:
(§1) The inhibitors described herein were subjected to surface plasmon resonance (“SPR”) to determine their binding constants to the NICD and CSL components of the NTC. In particular, the target protein (NICD1) was immobilized on the dextran surface of the SPR sensor chip. Through a microflow system, a solution with the inhibitor was injected over the immobilized protein layer. The inhibitor bound to the immobilized protein, which led to an increase in SPR signal, indicating association of the ligand to the target protein. After 45 seconds, buffer solution was injected on the microfluidics that dissociated the bound complex between the ligand and the inhibitor. As the inhibitor dissociated from the ligand, a decrease in SPR signal was observed. The equilibrium dissociation constant KD was determined by plotting the equilibrium response (Req) as a function of the concentration of the ligand, and fitting the data to a 1:1 binding model. The results are listed in […].

The target of the next data set is CSL (Homo sapiens, UniProt Q06330). Description: Surface plasmon resonance binding to CSL. To be noted: SPR, equilibrium response fitted to 1:1 binding model. The protocol: as §1
A general note: Surface plasmon resonance follows binding to a sensor surface in real time, without labels.

The test system of data set [1] is Notch target gene transcription. Description: RT-qPCR of Notch target genes in cancer cell lines. Type of data set: cell-based, human. On the procedure:
(§2) The effect of inhibitor treatment on Notch-target gene transcription also was investigated (FIGS. 2C and 2D). […] As proof of specificity, transcription of the housekeeping gene, HPRT, was unaltered in treated cells. To test the effects of Notch inhibition on proliferation, a colony formation assay was performed.
(§3) To extend the analysis of tumor cell growth inhibition, several commonly used cancer cell lines were selected to test for sensitivity to Inhibitor No. 1-134-83 (FIGS. 3A and 3B). […] In this analysis, sensitivity to DAPT is taken to indicate specific inhibition of Notch activity. […] Cells that are refractory to DAPT were equally resistant to Inhibitor No. 1-134-83.
RT-PCR analysis was performed using TaqMan probes according to manufacturer's instructions. In particular, 80 ng of RNA equivalent was used per reaction. Gene expression was normalized to the TATA-binding protein (“TBP”) gene. As a control, hypoxanthine phosphoribosyltransferase 1 (“HPRT”) gene expression was also monitored.
For orientation: In qPCR the cycle at which signal appears reflects the starting amount.

The subject of data set [2] is cancer cell lines (OE33, 786-0 and panel). Description: Colony formation assay. Type of data set: cell-based, human. To be noted: for colony formation: 7 days. The protocol:
as §2, §3
Cells were plated into a 6 well plate at a density of 2000 cells/cm^2. Inhibitor treatment commenced 24 hours post seeding, and the media containing inhibitor was changed every 48 hours thereafter. After 168 hours, cells were fixed with ice cold methanol for 10 minutes, stained for 1 hour with crystal violet, de-stained with water, and allowed to dry.

The test system of data set [3] is OE19 human esophageal adenocarcinoma xenograft. Description: OE19 cell line xenograft. To be noted: nude mouse. The format is in vivo. The source says: The effect of the inhibitors of the disclosure on tumor formation in an animal was investigated using a xenograft model. When introduced into the flank of nude mouse 5×10^6 OE19 cells, a human esophageal adenocarcinoma cell line readily forms tumors over the course of 4 weeks. […] In contrast, treatment under the same regimen with a DMSO control had no effect on tumor growth. […] (FIG. 4) Six-week-old NOD-SCID gamma (“NSG”) mice were purchased from Jackson Laboratories and CD-1 Nude mice were purchased from Charles River Laboratories. For the cell line based xenografts assay, 5×10^6 OE19 cells in 200 μl serum-free culture medium were injected subcutaneously per mouse. The mice in the treatment group were injected with 15 mg/kg of Inhibitor No. 1-134-83 daily, and the mice in the control group were injected with the same volume of vehicle (DMSO). Subcutaneous tumor growth was measured once every 4 days using calipers along with body weight. The experiment was discontinued on day 28. PDX cancer models were established, as described in Zhang et al, Establishment of Patient-Derived Xenograft (PDX) Models of Human Breast Cancer, Current Protocols in Mouse Biology, 3:21-29 (2013), in NSG mice. […] Tumor growth was monitored every 4 days and tumor volume was measured by the formula: Volume=(S×S×L)/2, where S and L are the short and long dimensions. […]

For data set [4], the system named is esophageal adenocarcinoma PDX tumors. Description: Esophageal adenocarcinoma patient-derived xenograft (PDX). Type of data set: in vivo, mouse. On the procedure: The effect of the inhibitors of the disclosure on the growth of an established tumor also was investigated using two independent esophageal adenocarcinoma patient-derived xenograft (“PDX”) models. Tumors were established in NSG mice to the size of 250 mm^3 prior to the initiation of treatment. Mice were dosed daily via intraperitoneal (“IP”) injection with either Inhibitor No. 1-134-83 (15 mg/kg) or DAPT (20 mg/kg), and compared to DMSO vehicle control. […] Following 24 days of treatment, tumors were harvested and Notch-target gene transcription was evaluated. […] (FIG. 4) Six-week-old NOD-SCID gamma (“NSG”) mice were purchased from Jackson Laboratories and CD-1 Nude mice were purchased from Charles River Laboratories. For the cell line based xenografts assay, 5×10^6 OE19 cells in 200 μl serum-free culture medium were injected subcutaneously per mouse. The mice in the treatment group were injected with 15 mg/kg of Inhibitor No. 1-134-83 daily, and the mice in the control group were injected with the same volume of vehicle (DMSO). Subcutaneous tumor growth was measured once every 4 days using calipers along with body weight. The experiment was discontinued on day 28. PDX cancer models were established, as described in Zhang et al, Establishment of Patient-Derived Xenograft (PDX) Models of Human Breast Cancer, Current Protocols in Mouse Biology, 3:21-29 (2013), in NSG mice. Briefly, 10 mm^3 pieces of primary EAC29 PDX tumor were transplanted subcutaneously into the flanks of NSG mice using a 13G telescopic needle. When the tumors reached 200 mm^3, the mice were split into two uniform groups for treatment. Compound 1-134-83 (15 mg/kg) and vehicle were administered daily by inraperitoneal (“IP”) injection for 24 days. Tumor growth was monitored every 4 days and tumor volume was measured by the formula: Volume=(S×S×L)/2, where S and L are the short and long dimensions. The xenograft tumors were harvested, weighed and samples were subjected to histological examination and by qPCR.
(In xenograft studies the graft and the host belong to different species.)

T1 sequence (P46531 1754-2555 limits assumed): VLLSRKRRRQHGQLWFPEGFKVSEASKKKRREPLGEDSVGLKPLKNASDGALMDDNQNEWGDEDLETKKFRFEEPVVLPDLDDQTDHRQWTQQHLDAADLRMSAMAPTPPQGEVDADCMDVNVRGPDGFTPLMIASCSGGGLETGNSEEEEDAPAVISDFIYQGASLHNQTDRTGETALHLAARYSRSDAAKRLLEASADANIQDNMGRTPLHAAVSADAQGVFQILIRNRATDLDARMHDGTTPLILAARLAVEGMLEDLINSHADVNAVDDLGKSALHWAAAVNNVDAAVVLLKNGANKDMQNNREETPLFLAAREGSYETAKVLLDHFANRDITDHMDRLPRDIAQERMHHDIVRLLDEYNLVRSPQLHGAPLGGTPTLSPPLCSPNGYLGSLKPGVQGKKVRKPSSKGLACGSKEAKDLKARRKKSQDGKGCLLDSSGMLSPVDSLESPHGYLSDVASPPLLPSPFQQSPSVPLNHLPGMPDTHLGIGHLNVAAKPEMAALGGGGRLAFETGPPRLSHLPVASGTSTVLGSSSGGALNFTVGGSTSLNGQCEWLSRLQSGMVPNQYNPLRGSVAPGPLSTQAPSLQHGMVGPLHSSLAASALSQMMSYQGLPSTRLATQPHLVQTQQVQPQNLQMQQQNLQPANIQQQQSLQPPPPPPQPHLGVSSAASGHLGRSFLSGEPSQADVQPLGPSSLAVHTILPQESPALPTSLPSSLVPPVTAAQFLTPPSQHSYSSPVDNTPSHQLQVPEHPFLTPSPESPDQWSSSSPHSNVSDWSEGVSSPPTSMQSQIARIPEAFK
CSL, sequence (Q06330 whole entry): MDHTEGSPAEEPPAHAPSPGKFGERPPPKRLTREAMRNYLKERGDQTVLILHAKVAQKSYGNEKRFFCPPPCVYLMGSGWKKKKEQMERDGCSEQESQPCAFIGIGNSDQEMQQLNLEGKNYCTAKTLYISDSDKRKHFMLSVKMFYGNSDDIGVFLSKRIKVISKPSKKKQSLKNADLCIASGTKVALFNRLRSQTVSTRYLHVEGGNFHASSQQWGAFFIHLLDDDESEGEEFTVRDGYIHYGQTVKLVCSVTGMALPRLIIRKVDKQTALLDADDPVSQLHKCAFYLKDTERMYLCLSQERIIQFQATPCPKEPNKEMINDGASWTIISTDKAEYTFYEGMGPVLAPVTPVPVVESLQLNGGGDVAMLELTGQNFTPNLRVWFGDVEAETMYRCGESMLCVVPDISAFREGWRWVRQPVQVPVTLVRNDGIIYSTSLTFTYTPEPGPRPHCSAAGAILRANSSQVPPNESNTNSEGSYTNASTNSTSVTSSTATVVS

In the case of `CCOC(=O)COc1ccc(/C=C2\SC(=S)NC2=O)cc1OC` [1-134-83], the Kd on NICD1 is 11 ± 3 µM; on CSL, 8 ± 2 µM. Also, the “Notch target gene transcription” value in data set [1] (OE33 and 786-0 cells, qPCR) is “dose-dependent decrease”; in data set [1] (insensitive cancer cell lines of the panel, 48 hrs) it was “do not show a statistically significant reduction”; in data set [1] (sensitive cancer cell lines of the panel, 48 hrs, DAPT 10, 1-134-83 15 and 25 μM) it was “significantly reduced”. Further, in data set [1] (OE33 and 786-0 cells, qPCR), the “transcription of control gene HPRT” value is listed as “unaltered”. Besides, the colony formation result in data set [2] (786-0 and OE33 cells) was “dose-dependent reduction”; in data set [2] (insensitive cell lines, high doses), “do not show changes in colony formation ability”; in data set [2] (sensitive (Notch dependent) cell lines), “dose-dependent decrease in colony formation”. In addition, in data set [2] (cancer cell lines), the effective concentration is 5 µM. The cellular toxicity entry in data set [2] (cells refractory to DAPT, dose nearly 10× the effective concentration) is “did not induce any cellular toxicity”. The “adverse effects on the animal (e.g. change in body weight)” value in data set [3] (15 mg/kg every day) is on record as “no adverse effects”. Moreover, the tumor establishment result in data set [3] (15 mg/kg every day from second day after transplantation) is on record as “tumor establishment was blocked”. For the same compound, the “weight loss or visible signs of stress” value in data set [4] (NSG mice, 15 mg/kg daily IP) is “without any significant weight loss or other visible signs of stress”. Also, the “growth of established tumor” value in data set [4] (NSG mice, two PDX models, daily IP, 1-134-83 15 mg/kg, DAPT 20 mg/kg) was “significantly stunted growth”. Besides, in data set [4] (PDX tumor, versus vehicle), the “decrease in tumor volume by the experimental endpoint” value was “three-fold”. The “transcription of control gene (TBP2) in tumors” value in data set [4] (treated PDX tumors, qPCR) is reported as “unaffected”. Further, the “level of Notch target genes (Hes1, HeyL, Notch3) in tumors” value in data set [4] (tumors harvested after 24 days of treatment, qPCR) is given as “dramatically reduced”.

Broadly, the Kd is the concentration at which binding is half-saturated.
